The values that follow come from US20090233841A1, “ANALGESIC CONJUGATES” (Regents of the University of Minnesota, priority 2005, published 2009).

“Also recorded” adds a separate entry of the source.

For data set [1], the system named is male ICR mice. Description: Mouse radiant heat tail flick assay after acute ICV administration. Type of data set: in vivo. To be noted: for ED50 ICV (nmol): tail flick, Table 2. As to the method: Acute drug administration. Drugs were dissolved in sterile saline (0.9% NaCl). Animals were anesthetized with halothane and drugs were administered with a Hamilton syringe mated to a shortened (3 mm) 27-g needle in a volume of 4 μl by ICV injection into the lateral cerebral ventricle (Haley et al., 1957). The injection site was 1.6 mm lateral and 0.6 mm caudal to bregma.
Antinociceptive testing. […] Mice were tested once before injection (control time).
Background: Thermal pain tests record how soon the animal reacts.

The test system of data set [2] is male ICR mice. Description: Mouse tail flick assay after IV administration. The settings on record: for decrease in potency when administering IV versus ICV: tail flick ED50 IV versus ICV. As to the method:
Antinociceptive testing. Antinociception was evaluated by the radiant heat tail flick assay (D'Amour et al., 1941). Briefly, a beam of light was focused on the mouse tail and the time until the tail flicked was measured. Each animal served as its own control and was used only once. Mice were tested once before injection (control time). After injection, the mice were tested at the time of peak drug response (drug time), as determined by pilot time course studies. The light intensity was adjusted so that control times were between 1.5 and 2.5 s. A 10 second cutoff drug time was set to minimize the risk of tissue damage. Percent maximum possible effect (% MPE) was calculated as follows (Dewey et al., 1970): […]
Graded dose response curves of at least 4 doses with at least 8 mice per dose were generated from the % MPE data.
Methods Drugs were administered IV via the tail vein in a volume of 100 μl to male ICR mice. Fifteen minutes later, antinociception was measured by the tail flick assay and charcoal meal (300 μl, oral) was administered by gavage. Thirty minutes after the charcoal meal., the mice were sacrificed by halothane overdose and the distance the charcoal traveled relative to the entire length of the GI tract was compared to the distance traveled in control animals injected with saline. The conjugates tested (MDAN-16, MDAN-19, MDAN-20, and MDAN-21) had linker lengths of 19, 23, 24, and 25 Å.

Data set [3] has as its system male ICR mice. Description: Tolerance: tail flick ED50 after 3-day chronic ICV infusion (osmotic minipump). Type of data set: in vivo, mouse. To be noted: for Chronic ED50 nmol (95% C.L.): compound chronically administered ICV for 3 days, then challenge doses; for Saline ED50 nmol (95% C.L.): saline chronically administered ICV for 3 days, then challenge doses of compound. As to the method: (§1) Chronic administration To investigate tolerance and dependence associated with these conjugates, chronic ICV administration studies were performed. The compound of interest was administered ICV via a cannula using an osmotic minipump for 3 days, as previously described (Gomori et al., 2003; Mashiko et al., 2003). Withdrawal was measured by administering naloxone (1 mg/kg; subcutaneous (sc)) and counting the naloxone-precipitated jumps for 10 minutes. Tolerance was determined by administering challenge doses of the compound after chronic infusion for 3 days, and determining the chronic ED50 value at that time.
(§2) Chronic ICV infusion. Osmotic minipumps (model 1003D, Alzet, Durect Corporation, Cupertino, Calif.) were filled with saline or the drug to be tested. The dose of each drug was twelve times its ED50 (nmol)/hour. The minipumps were connected by a 1.6-1.8 cm length of PE-60 tubing to a 3-mm long cannula (osmotic pump connector cannula, Plastics One, Roanoke, Va.) and primed in sterile saline at 37° C. overnight.
(§3) The next day, mice were anesthetized with Avertin (2,2,2-tribromoethanol (370 mg/kg, IP)/tert amyl alcohol (0.16 mg/kg, IP)) before surgery. The scalp was shaved and an incision was made along the midline of the scalp. Hemostats were used to make a pocket under the skin between the shoulder blades. The skull was scraped clean of periosteum so that the cannula pedestal would properly adhere to the skull. A micro drill (Fine Science Tools Inc., Foster City, Calif.) was used to drill a hole approximately 1.6 mm lateral and 0.6 mm caudal to bregma. The minipump was placed between the shoulder blades, the cannula was inserted in the drilled hole into the lateral ventricle, and the cannula pedestal was affixed to the skull with cyanoacrylate glue. The animals were allowed to recover on a heating pad (Fine Science Tools, Foster City, Calif.) and were returned to their cages in the animal facility for three days.
To test the degree of tolerance developed, the osmotic minipump was removed and the mice were returned to their cages for four hours. The mice were then injected with the test drug into the contralateral lateral cerebral ventricle and antinociception was measured with the tail flick test as described above.

In data set [4] the test system is male ICR mice. Description: Physical dependence: naloxone-precipitated withdrawal jumping after chronic ICV infusion. In kind it is in vivo, mouse. To be noted: for # of Jumps (SEM), naloxone-precipitated withdrawal: average jumps in 10 minutes after naloxone 1 mg/kg sc, after 3-day ICV infusion. As to the method:
as §1, §2, §3
Testing for dependence and tolerance. The development of physical dependence was assessed by quantifying withdrawal jumping observed during precipitated withdrawal (Way et al., 1969) on the fourth day after surgery. Mice were injected with naloxone (1 mg/kg, sc) and placed into Plexiglas cylinders for 10 minutes. During those 10 minutes, vertical jumps were counted as withdrawal signs.

Data set [5] concerns mice. Description: Conditioned place preference (CPP). In kind it is in vivo, mouse. To be noted: for conditioned place preference: IV; for conditioned place preference (summary statement): dose not restated. As to the method: Conditioned place preference (CPP) is a technique used to measure the rewarding properties of a drug. Two sides of the CPP apparatus have both visual and tactile differences, so that a mouse can tell the difference between sides. On the first day of testing, the time each mouse spends in either side of the apparatus is measured. For the next three days, the drug is “paired” with one side or the other by injecting the mouse and immediately confining it to that side. On the final day, the amount of time the mouse spends in the drug-paired side is determined and the percent change is calculated. If the percent change is positive, the drug is thought to be rewarding and likely to be abused by humans.
Methods The CPP apparatus used was a plastic box, approximately 12 inches×6 inches×6 inches (1/w/h). One half of the box was transparent with a scored or textured floor and the other half of the box had blue vertical stripes with a smooth floor. The box was divided such that the mice could go from one side to the other through an opening or be confined to one side.
Preconditioning On day 1, each mouse was allowed to explore both sides of the box for 15 minutes to expose them to the novel environment. On day 2, each mouse was placed into the box for 15 minutes and the amount of time the mouse spent in each side of the box was recorded. Mice that spend more than 9 minutes in one side of the box are excluded (two of 32 mice were excluded).
Conditioning On day 3, each mouse was given two sets of IV injections. First, the mice were injected with saline and randomly confined to one side of the box for 30 minutes. The mice were then injected with the drug (or saline, for control mice) and confined to the other side of the box (“drug-paired side”) for 30 minutes. This conditioning paradigm was repeated for three days.
Postconditioning On day 6, the amount of time the mouse spent in each side of the box was recorded. For the results, the amount of time the mouse spent in the drug-paired side during preconditioning was subtracted from the time spent in the drug-paired side during post-conditioning to reach a “score”: Score=Postconditioning time in drug-paired side-Preconditioning time spent in drug-paired side.
FIG. 1 depicts the percent change in time spent in the drug-paired side. The asterisks in the graph indicate significant difference from saline (p<0.05).

Data set [6] relates to male ICR mice. Description: GI transit inhibition (charcoal meal) after IV administration. In kind it is in vivo, mouse.

Regarding `CN1CCC23c4c5ccc(O)c4OC2C(NC(=O)COCC(=O)NCCCCCCCNC(=O)COCC(=O)Nc2cccc4c6c([nH]c24)C2Oc4c(O)ccc7c4C24CCN(CC2CC2)C(C7)C4(O)C6)CCC3(O)C1C5` (stereo not shown) [Compound 8], the “ED50 nmol (95% C.L.), antinociceptive potency” value in data set [1] (mouse tail flick, acute ICV administration, conjugates and coadministration) is recorded as 0.08 (0.06-0.10) nmol. Also, the “ED50 ICV (nmol)” value in data set [1] is listed as 0.08 (0.06-0.10) nmol. Further, the “decrease in potency when administering IV versus ICV” value in data set [2] is given as around 40 ×. Also, in data set [2] (tail flick, IV), the “ED50 IV (nmol)” value is listed as 3.3 (3.0-3.6) nmol and the “potency relative to morphine when given IV” value is on record as 50 fold. The “tolerance on chronic ICV administration” value in data set [3] (3-day ICV infusion, listed as MDAN-21) was “no tolerance or dependence was observed; also recorded: produced no tolerance or physical dependence”. In data set [3], the “Chronic ED50 nmol (95% C.L.)” value is 0.10 (0.09-0.11) nmol and the “Saline ED50 nmol (95% C.L.)” value is 0.10 (0.09-0.11) nmol. In addition, the “physical dependence on chronic ICV administration” value in data set [4] (3-day ICV infusion, naloxone-precipitated jumping, listed as MDAN-21) is listed as “no tolerance or dependence was observed; also recorded: produced no tolerance or physical dependence”. Besides, in data set [4], the “# of Jumps (SEM), naloxone-precipitated withdrawal” value is reported as 3.5 (1.7). Moreover, the “conditioned place preference” value in data set [5] (4× the ED90 analgesic dose) is listed as “did not display a place preference”. Besides, in data set [5], the “conditioned place preference (summary statement)” value is “does not produce conditioned place preference”.

On to `CN1CC[C@]23c4c5ccc(O)c4O[C@H]2[C@@H](O)C=C[C@H]3[C@H]1C5` [Morphine, reference compound], for which the “ED50 ICV (nmol)” value in data set [1] is recorded as 4.1 (3.7-4.8) nmol. For the same compound, in data set [2] (IV, tail flick 15 min after drug), the “efficacy in the TF test” value is “fully efficacious”. For the same compound, the “decrease in potency when administering IV versus ICV” value in data set [2] is around 40 ×. The “ED50 IV (nmol)” value in data set [2] (tail flick, IV) is reported as 168 (146-178) nmol. Besides, the “Chronic ED50 nmol (95% C.L.)” value in data set [3] is on record as 26.80 (20.82-32.78) nmol. In data set [3], the “Saline ED50 nmol (95% C.L.)” value is given as 4.54 (3.51-5.56) nmol. The “# of Jumps (SEM), naloxone-precipitated withdrawal” value in data set [4] was 100 (15); in data set [4] (listed as morphine) it was 100±15. Besides, in data set [6], the “efficacy in the GIT inhibition assay” value is listed as “fully efficacious”. The “GIT inhibition ED50” value in data set [6] (charcoal meal 15 min after drug) is listed as 129 (115-142) nmol. For the same compound, the “conditioned place preference” value is on record as “exhibiting a conditioned place preference” in data set [5] (2× the ED90 analgesic dose) and “demonstrated conditioned place preference” in data set [5] (4× the ED90 analgesic dose). Moreover, the “conditioned place preference (summary statement)” value in data set [5] is “produced conditioned place preference”.
